Legend:
[1] = biological target: T1, Peroxisome proliferator-activated receptor gamma (Homo sapiens) (UniProt P37231); assay: Agonist activity at human GAL4-tagged-PPARgamma transfected in monkey COS1 cells by transient transfection/luciferase reporter gene assay relative to 10 uM rosiglitazone; assay type: cell-based; conditions: COS-1
T1 sequence (whole entry): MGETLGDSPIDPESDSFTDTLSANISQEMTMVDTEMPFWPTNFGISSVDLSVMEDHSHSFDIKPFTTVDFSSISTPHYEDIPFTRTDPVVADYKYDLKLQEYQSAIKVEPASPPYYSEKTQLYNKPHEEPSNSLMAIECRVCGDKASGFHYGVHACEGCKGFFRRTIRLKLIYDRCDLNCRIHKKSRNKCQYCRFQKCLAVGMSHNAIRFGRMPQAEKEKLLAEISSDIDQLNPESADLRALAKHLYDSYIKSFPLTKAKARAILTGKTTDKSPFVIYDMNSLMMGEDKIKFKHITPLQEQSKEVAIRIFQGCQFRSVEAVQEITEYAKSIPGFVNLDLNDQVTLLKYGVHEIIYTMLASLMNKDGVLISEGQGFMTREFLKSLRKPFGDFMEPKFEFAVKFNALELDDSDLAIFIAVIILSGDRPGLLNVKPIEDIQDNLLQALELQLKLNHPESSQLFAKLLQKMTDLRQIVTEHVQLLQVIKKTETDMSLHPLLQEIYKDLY

[2] = biological target: T1, Peroxisome proliferator-activated receptor gamma (Homo sapiens); assay: Agonist activity at human GAL4-tagged-PPARgamma transfected in monkey COS1 cells by transient transfection/luciferase reporter gene assay relative to 30 uM pioglitazone; assay type: cell-based; conditions: COS-1

%max [1]: 50%
%max [2]: 50%
Structure (SMILES): CCCOc1ccc(C(=O)NS(=O)(=O)c2ccccc2)cc1CNC(=O)c1ccc(-c2ncccn2)cc1

— ChEMBL document CHEMBL3588855, “Different structures of the two peroxisome proliferator-activated receptor gamma (PPARγ) ligand-binding domains in homodimeric complex with partial agonist, but not full agonist” (Bioorg Med Chem Lett, 2015)
